Measurements: a melting point compilation (Tetko et al.; mined from patent text by program, amines drawn as free bases though some values may be those of a salt)

Row | melting point | SMILES
1 | 65 to 66 °C | COc1ccccc1SCCCCCCCCCC(=O)O
2 | 160 to 162 °C | COc1ccc(N2CCN(c3c(C)c(C)c4c(c3C)OC(C)(C)C4c3ccc(C)cc3)CC2)cc1 (configuration not stated)
3 | 93.2 to 94.6 °C | CCOC(=O)c1cc(C)n(-c2cccc(Cl)c2)c1-c1ccccc1
4 | > 250 °C | O=C(O)/C=C/c1ccc(/C=C/c2ccncc2)nc1
5 | 195 to 198 °C | O=C(O)CNc1csc2ccccc12
6 | 115 to 118 °C | COc1ccc(C#N)cc1C=O
7 | 250 to 254 °C | COC(=O)c1cn(-c2ccc(F)cc2)c(-c2ccc(Cl)cc2)cc1=O
8 | 106 to 108 °C | CCCCC(C)(Cc1ccc(OCCNC(=O)c2ccc(-c3ccccn3)cc2)cc1)C(=O)O (configuration not stated)
9 | 272 to 274 °C | CN1C(=O)Cn2cnnc2-c2cc(Cl)ccc21
10 | 157 to 158 °C | COc1nc(C)nc(NC(=O)NS(=O)(=O)c2ccccc2C(=O)O)n1
11 | 48 to 49 °C | CC(=O)O[C@H]1C=C[C@@H](O)C1
12 | 45 to 46 °C | CCCCCCCC1(CCCCCCC)c2cc(Br)ccc2-c2ccc(Br)cc21
13 | 61 to 63 °C | CC(C)c1ccc(C(Cl)=NO)cc1
14 | 130 to 131 °C | CON1CCC(C#N)(NO)CC1
15 | 163 to 164 °C | COc1ccc(C(=O)Cc2ccc(Br)cc2)c(Cl)c1Cl
16 | 207 to 209 °C | CCOC(=O)c1cc2c3n(ccc-2n1)CC(C(C)C)=N3
17 | 145 to 155 °C | N#CC(c1ccccc1)c1cc(Oc2cc(Cl)cc(Cl)c2)c2c(=O)c3ccccc3sc2c1 (configuration not stated)
18 | 222 to 224 °C | O=c1c2cnccc2n(-c2cccc(Cl)c2)c2ncccc12

Row | melting point | SMILES
19 | 112 °C | CC(C)(C)OC(=O)[C@@H]1CC[C@H](c2ccccc2)N1C(=O)CNC(=O)Nc1cccc(CC(=O)O)c1
20 | 208 to 210 °C | Cc1cc(C#N)cc(C)c1Oc1cc(Cl)nc(Cl)n1
21 | 228 to 230 °C | COC(=O)c1ccc2c(c1)-c1c(c(C(=O)C(C#N)C(=O)Nc3ccccc3)nn1-c1ccccc1)CS2 (configuration not stated)
22 | 95 to 100 °C | Clc1cncnc1NCc1ccc(OCc2ccccc2)cc1
23 | > 260 °C | CCc1nc2c(N)nc3cc(/C=C/C(=O)N(C)C)ccc3c2n1CC1CCOCC1
24 | 126 to 127 °C | CCCCCN1C(=O)C2(COc3cc4c(cc32)OCO4)c2cccnc21 (configuration not stated)
25 | 156 to 157 °C | CCC(=O)c1ccc(Cl)c2nc3n(c12)CCCN3c1ccc(Cl)cc1Cl
26 | 161 to 162 °C | CCn1c(CCOC(N)=O)nc(C(C)C)c1Sc1cc(Cl)cc(Cl)c1
27 | 211 °C | O=c1oc2c(-c3ccccc3)cccc2c(O)c1-c1ccccc1
28 | 78 °C | Cc1ccc(NC(=O)C(C)C)o1
29 | 40 to 41 °C | CC(=O)NCCCc1cccc2c1CC(CCCCc1ccccc1)O2 (configuration not stated)
30 | 166 to 167 °C | Cn1ccc2c1CC(c1ccccc1)CC2=O (configuration not stated)
31 | 109 °C | NS(=O)(=O)c1cccc(CCO)c1
32 | 89 to 90 °C | CCCC(=O)c1cc(-c2ccccc2)no1
33 | 204 to 205 °C | O=C1C(=Cn2ccnc2)C(c2ccc(Cl)cc2)c2ccc(Cl)cc21 (configuration not stated)
34 | 84 to 87 °C | COc1ccc(-c2nc(-c3cccs3)c[nH]2)cc1Br
35 | 220 to 222 °C | CN(C)C(=O)Nc1cc(C(C)(C)C)[nH]n1

The remaining lines, values behind:

Row | SMILES | melting point
36 | CSc1ccc(C2=C(c3ccc(F)cc3C)CCC2)cc1 | 67 to 68 °C
37 | CC(C)(C)OC(=O)COc1ccc(NC(=O)NC(=O)c2ccc(C#N)nc2)cc1 | 220 to 222 °C
38 | CCOc1ccccc1N1CCN(CCCC2CN(C)C(=O)O2)CC1 (configuration not stated) | 79 to 81 °C
39 | CN(C)c1ccc([N+](=O)[O-])c(C(=O)NCC2CCN(C(c3ccccc3)c3ccccc3)CC2)c1 | 200 °C
40 | CCOC(=O)Cn1cnc2c(Cl)nc(NC(=O)c3ccc(C4CCCCC4)cc3)nc21 | 90 to 107 °C
41 | CC(=O)Nc1ncc(Sc2ccc(NS(C)(=O)=O)cc2)s1 | 236 to 239 °C
42 | Cc1cc(SC2=C(O)CC(C3CCCC3)(C3CCCC3)OC2=O)c(C(C)(C)C)cc1N | 163 to 165 °C
43 | O=C(O)C(O)(c1ccc(F)cc1)c1ccc(F)cc1 | 133 to 136 °C
44 | CC(C)c1cccc(CCCO)c1NC(=O)CC1c2ccccc2Oc2ccccc21 | 218 to 219 °C
45 | COc1ccc(CC(=O)c2ccc(OCc3ccccc3)cc2O)cc1 | 97 to 98 °C
46 | CC(=O)c1c(N2CCOCC2)nn2ccccc12 | 164 °C
47 | COc1ccc(C2=NN(CC(=O)c3ccccc3OC)C(=O)[C@H]3CCCC[C@@H]23)cc1OC (relative stereo) | 93 to 96 °C
48 | O=C(Oc1ccccc1)N1CCC2(CC1)SC(c1ccccc1)c1ccc(F)cc12 (configuration not stated) | 156 to 158 °C
49 | COc1cc(OCc2ccccn2)ccc1/C=C/c1cc(/C=C/c2ccc3c(c2)OCCO3)n[nH]1 | 153 to 155 °C
50 | N#CCc1ccc(-c2cn3ccccc3n2)cc1 | 175 to 177 °C
51 | CCn1c(=O)sc2cc(C(c3ccc([N+](=O)[O-])cc3)n3cncn3)ccc21 (configuration not stated) | 79 to 83 °C
52 | Cc1cn(C2CC(OP(N)O)C(CO[Si](C)(C)C(C)(C)C)O2)c(=O)[nH]c1=O (configuration not stated) | 68 to 70 °C
53 | CCCCOc1c(C(=O)O)n(CC(C)C)c(=O)c2ccc(OCc3ccccc3)cc12 | 151 to 152 °C
54 | CSc1cc2c(cc1C(F)(F)F)N(C(=O)Nc1ccc(C(=O)N(C)c3ccncc3)cc1)CC2 | 230 to 232 °C
55 | S=c1[nH]c2cccnc2n1-c1ccc2c(c1)OCO2 | 278 °C
56 | N#Cc1cc(-c2cccnc2)nn1-c1ccc(NCC2Cc3ccccc3C2)cc1 | 156 to 158 °C
57 | COc1ccc(S(=O)(=O)N2CCC(N3N=C(c4ccc(OC)c(OC)c4)CCC3=O)CC2)cc1 | 197 to 198 °C
58 | CONS(=O)(=O)c1ccccc1Cl | 92.5 to 94 °C

Row | SMILES | melting point
59 | Clc1ccc2[nH]c3c(c2c1)CCC1(C3)OCCO1 | 128 to 138 °C
60 | COC(=O)CCCC(=O)c1ccc(OC)c(CCC(=O)OC)n1 | 64 to 66 °C
61 | COc1ccc2c(c1)OC(CNCCCOc1ccc3c(=O)ccoc3c1)CO2 (configuration not stated) | 155 to 157 °C
62 | CCCc1nn(-c2ccc(C(F)(F)F)cn2)cc1CCCO | 96 to 97 °C
63 | CC(C)OC(=O)N1CCC(NC(=O)N2CCn3c(c(C(N)=O)c(C#N)c3-c3ccccc3)C2)CC1 | 172 to 174 °C
64 | C=C1C=C(Oc2cc(C(=O)Nc3c(Cl)cncc3Cl)ccc2OC)C1(F)F | 102 to 104 °C
65 | CCn1cc(C(=O)NC2CCCCC2)c(=O)c2cnc(N3CCCC3)nc21 | 265 to 267 °C
66 | NCCCC[C@H](O)C(=O)O | 197 to 199 °C
67 | CSC(=NCCSCc1ncccc1Cl)NC#N | 120 to 121 °C
68 | Nc1nc(Nc2ccc(N3CCOCC3)cc2)sc1C(=O)c1c(Cl)cncc1Cl | 292 °C
69 | COc1cccc(C=C2SC(=S)N(CC(=O)O)C2=O)c1-c1cc2c(cc1C)C(C)(C)CCC2(C)C | 149 °C
70 | CCCC(=O)Nc1cccc(-c2ccc3nnc(C)n3n2)c1 | 195 to 198 °C
71 | N#Cc1cccc(NC(=O)n2ccnc2)c1 | 174 to 176 °C
72 | CC(=O)OC[C@@H]1O[C@H](n2c(NC(C)C)nc3c(Cl)cccc32)[C@@H](OC(C)=O)[C@H]1OC(C)=O | 225 to 227 °C
73 | COc1cc(-c2ccccn2)cc([N+](=O)[O-])c1OC | 89 to 90 °C
74 | COc1cc2c(cc1OC)/C(=C\c1ccc(OCC(=O)OC(C)(C)C)cc1)C(=O)N2 | 158 to 160 °C
75 | O=C(CNCc1cccc(-c2ccc(CC(Nc3ccccc3C(=O)c3ccccc3)C(=O)O)cc2)c1)c1ccccc1 (configuration not stated) | 90 °C
76 | Cc1cc(C#N)sc1-c1ccc2c(c1)C(C)(C)OC(C)N2 (configuration not stated) | 145 to 146 °C
77 | CC(C)(C)OC(=O)N1CCC2(CC1)C(=O)Nc1ccccc12 | 138 to 140 °C
78 | O=C(CCCN1CCC2(CC1)OC(=O)c1ccccc12)c1ccc(F)cc1 | 183 to 184 °C
79 | COc1cc2ncc(C#N)c(Nc3ccc(F)c(Cl)c3)c2cc1NC(=O)C=CCN1CCC(O)(O)CC1 | 225 to 230 °C
80 | ClCc1ccc2cc(Cl)ccc2c1 | 107 to 110 °C
81 | c1cc2[nH]ncc2cc1OC1CCCCC1 | 144 to 146 °C

Row | SMILES | melting point
82 | CCc1c(C2=NC(C)(C)CO2)ccc(C2=NC(C)(C)CO2)c1CC | 49 to 50 °C
83 | COCCOc1ccc(C(=O)C2=C(O)C(=O)N(c3ccc(C)nn3)C2c2ccc(OC(F)(F)F)cc2)cc1 (configuration not stated) | 216 to 219 °C
84 | CCNc1cncc(C(=NCCO[N+](=O)[O-])NC#N)c1 | 100 °C
85 | CC(C)C(C)Nc1c(NCc2ccc(C#N)cc2)c(=O)c1=O (configuration not stated) | 257 to 260 °C
86 | C(=Cc1nc(CNc2ccc(CCCCn3ccnn3)cc2)co1)c1ccc2c(c1)OCO2 | 130 to 131 °C
87 | O=P1(C2CCCC2)c2ccccc2CN1c1ccccc1 (configuration not stated) | 123 to 125 °C
88 | CC(C)(Cc1ccc(F)cc1)NC(=O)Nc1ccccc1CCc1cc(C(C)(C)C)c(O)c(C(C)(C)C)c1 | 151 °C
89 | CCOC(=O)c1ccc(N)cc1Br | 93 °C
90 | CCCCc1ncc(/C=C(\C)C(=O)O)n1Cc1ccccc1Cl | 228 to 229 °C
91 | Clc1ccc2c(c1)C(c1ccccc1)=NCc1ccccc1-2 | 118 to 119 °C
92 | COC(=O)Cc1ccc(OCCNC(=O)C2Cc3ccccc3N2S(=O)(=O)c2ccc(-c3cc(F)ccc3Cl)cc2)cc1 (configuration not stated) | 52 to 56 °C
93 | CCCCCCCCCCCCSc1nnn[nH]1 | 85 to 87 °C
94 | CCOC(=O)C1=C(C=O)NC(CF)=C(C(=O)OCC)C1c1cccc([N+](=O)[O-])c1 (configuration not stated) | 88 to 90 °C
95 | O=C(O)c1ccccc1-c1ccc([N+](=O)[O-])cn1 | 262 to 264 °C
96 | Cc1c(C)c(N2C(=O)c3ccccc3C2=O)c(C)c2c1OC(C)(C)C2 | 166 to 168 °C
97 | Cn1cncc1C(O)c1ccc2c(c1)c(-c1cccc(Cl)c1)cc(=O)n2C (configuration not stated) | 167 °C
98 | COC(=O)c1ccccc1COc1ccc(-c2cc(O)c(SCCc3ccccc3)c(=O)o2)cc1 | 161 to 162 °C
99 | COc1ccc2c(c1)Oc1ccccc1C2 | 72 to 74 °C
100 | CC(C)(C)OC(=O)n1nc2nc3n(c(=O)c2c1N)CCS3 | > 300 °C
101 | COC(=O)CCc1ccc(N2CCN(c3ccc(C(=N)NC(=O)OC)cc3)S2(=O)=O)cc1 | > 275 °C
102 | CC(=O)CCN1c2ccccc2NC(=O)C1C (racemic) | 108 to 109 °C
